Source: patent publication US12655116B2, “Substituted isophthalic acid diamides” (Bayer Aktiengesellschaft, priority 2020, dated 2026)

Tests used:
AVEFA = assay: Pre-emergence herbicidal action against AVEFA; type: in vivo, Avena fatua; details: for Pre-emergence action against AVEFA in %: 80 g/ha
How it was run: (§1)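 Herbicidal effect was assessed 3 weeks after treatment by visual comparison with untreated controls, 100% denoting dead plants. Aqueous WP or EC preparations had been applied at 600 to 800 l/ha with 0.2% wetting agent to the soil covering freshly sown seeds.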

ALOMY [1] = assay: Pre-emergence herbicidal action against ALOMY; type: in vivo, Alopecurus myosuroides; details: 80 g/ha, pre-emergence, scored visually after 3 weeks vs untreated controls (100% = plants have died, 0% = like control plants)
How it was run: as §1

DIGSA [2] = assay: Post-emergence herbicidal action against DIGSA; type: in vivo, Digitaria sanguinalis; details: 20 g/ha
How it was run: (§2)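 Herbicidal effect was scored visually in percent after about 3 weeks in the greenhouse. Plants had been raised in sandy loam and treated post-emergence at the one-leaf stage with formulated compound at 600 to 800 l/ha water plus 0.2% wetting agent.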

SETVI [3] = assay: Pre-emergence herbicidal action against SETVI; type: in vivo, Setaria viridis
How it was run: as §1

LOLRI = assay: Pre-emergence herbicidal action against LOLRI; type: in vivo, Lolium rigidum; details: 80 g/ha
How it was run: as §1

MATIN [4] = assay: Post-emergence herbicidal action against MATIN; type: in vivo, Matricaria inodora; details: dosage 20 g/ha
How it was run: as §2

AMARE [5] = assay: Post-emergence herbicidal action against AMARE; type: in vivo, Amaranthus retroflexus; details: 20 g/ha, visual assessment about 3 weeks after treatment, 100% = plants have died, 0% = like control plants
How it was run: as §2

ECHCG [6] = assay: Pre-emergence herbicidal action against ECHCG; type: in vivo, Echinochloa crus-galli
How it was run: as §1

VIOTR [7] = assay: Pre-emergence herbicidal action against VIOTR; type: in vivo, Viola tricolor
How it was run: as §1

VERPE = assay: Post-emergence herbicidal action against VERPE; type: in vivo, Veronica persica
How it was run: as §2

PHBPU [8] = assay: Post-emergence herbicidal action against PHBPU; type: in vivo, Pharbitis purpurea; details: dosage 20 g/ha
How it was run: as §2

VIOTR [9] = assay: Post-emergence herbicidal action against VIOTR; type: in vivo, Viola tricolor
How it was run: as §2

PHBPU [10] = assay: Pre-emergence herbicidal action against PHBPU; type: in vivo, Pharbitis purpurea
How it was run: as §1

AMARE [11] = assay: Pre-emergence herbicidal action against AMARE; type: in vivo, Amaranthus retroflexus
How it was run: as §1

DIGSA [12] = assay: Pre-emergence herbicidal action against DIGSA; type: in vivo, Digitaria sanguinalis
How it was run: as §1

MATIN [13] = assay: Pre-emergence herbicidal action against MATIN; type: in vivo, Matricaria inodora
How it was run: as §1

ABUTH = assay: Pre-emergence herbicidal action against ABUTH; type: in vivo, Abutilon theophrasti; details: for Pre-emergence action against ABUTH (herbicidal activity): 80 g/ha, scored visually after 3 weeks vs untreated controls (100% = plants have died, 0% = like control plants)
How it was run: as §1

ALOMY [14] = assay: Post-emergence herbicidal action against ALOMY; type: in vivo, Alopecurus myosuroides; details: dosage 20 g/ha, visual assessment about 3 weeks after treatment vs untreated controls
How it was run: as §2

ECHCG [15] = assay: Post-emergence herbicidal action against ECHCG; type: in vivo, Echinochloa crus-galli; details: dosage 20 g/ha
How it was run: as §2

SETVI [16] = assay: Post-emergence herbicidal action against SETVI; type: in vivo, Setaria viridis
How it was run: as §2

[17] = 20 g/ha, scored visually after 3 weeks vs untreated controls, 100% = plants have died, 0% = like control plants
[18] = 80 g/ha, scored visually after 3 weeks vs untreated controls (100% = plants have died, 0% = like control plants)

| Compound | Pre-emergence action against AVEFA in % (AVEFA) [%] | Pre-emergence action against ALOMY (herbicidal activity) (ALOMY [1]) [%] | Pre-emergence action against SETVI in % (SETVI [3]; dosage 20 g/ha) [%] | Pre-emergence action against SETVI in % (SETVI [3]; dosage 80 g/ha) [%] | Pre-emergence action against LOLRI in % (LOLRI) [%] | Post-emergence action against MATIN in % (MATIN [4]) [%] | Post-emergence action at 20 g/ha against AMARE in % (AMARE [5]) [%] | Pre-emergence action against ECHCG in % (ECHCG [6]; 80 g/ha) [%] | Pre-emergence action against VIOTR in % (VIOTR [7]; dosage 80 g/ha) [%] | Post-emergence action against VERPE in % (VERPE; 20 g/ha) [%] | Post-emergence action against PHBPU in % (PHBPU [8]) [%] | Post-emergence action against VIOTR in % (VIOTR [9]; 20 g/ha) [%] | Pre-emergence action against PHBPU in % (PHBPU [10]; dosage 80 g/ha) [%] | Pre-emergence action against AMARE in % (AMARE [11]; [17]) [%] | Pre-emergence action against AMARE in % (AMARE [11]; [18]) [%] | Pre-emergence action against DIGSA in % (DIGSA [12]; dosage 80 g/ha) [%] | Pre-emergence action against MATIN in % (MATIN [13]; dosage 20 g/ha) [%] | Pre-emergence action against MATIN in % (MATIN [13]; dosage 80 g/ha) [%] | Pre-emergence action against ABUTH (herbicidal activity) (ABUTH) [%] | Post-emergence action against ALOMY in % (ALOMY [14]) [%] | further results |
| --- | --- | --- | --- | --- | --- | --- | --- | --- | --- | --- | --- | --- | --- | --- | --- | --- | --- | --- | --- | --- | --- |
| CCn1nnnc1NC(=O)c1ccc(C(F)(F)F)c(C(=O)NCC(F)F)c1Cl [Example 2-134] | 90 | 90 | 80 | 100 | 80 | 80 | 100 | 100 | 100 | 80 | 90 | 90 | 90 | 100 | 100 | 100 | 90 | 100 | 100 | 80 | Pre-emergence action against AVEFA (AVEFA; 20 g/ha, scored visually after 3 weeks, 100% = plants have died, 0% = like control plants): 80%; Post-emergence action against DIGSA (DIGSA [2]): 80%; Pre-emergence action against ECHCG in % (ECHCG [6]; 20 g/ha): 80%; Pre-emergence action against VIOTR in % (VIOTR [7]; dosage 20 g/ha): 100%; Post-emergence action against VIOTR in % (VIOTR [9]; 5 g/ha): 80%; Pre-emergence action against PHBPU in % (PHBPU [10]; dosage 20 g/ha): 80%; Pre-emergence action against DIGSA in % (DIGSA [12]; dosage 20 g/ha): 80%; Pre-emergence action against ABUTH (herbicidal activity in percent) (ABUTH; dosage 20 g/ha, scored visually after 3 weeks vs untreated controls, 100% = plants have died, 0% = like control plants): 100%; Post-emergence action against ECHCG in % (ECHCG [15]): 90% |
| CCn1nnnc1NC(=O)c1ccc(C(F)(F)F)c(C(=O)NCC(F)(F)F)c1Cl [Example 2-133] | 90 | 90 | 100 | 100 | 80 | 90 | 90 | 100 | 90 | 80 | 80 | 80 | 80 | 90 | 100 | 90 | 90 | 100 | 100 | 80 | Post-emergence action against VERPE in % (VERPE; 5 g/ha): 80%; Post-emergence action against SETVI in % (SETVI [16]; dosage 5 g/ha): 80%; Post-emergence action against SETVI in % (SETVI [16]; dosage 20 g/ha): 90%; Post-emergence action against ECHCG in % (ECHCG [15]): 80% |
